Data published in patent publication US8178506B2, “Oligomeric compounds and compositions for use in modulation of small non-coding RNAs” (Regulus Therapeutics Inc., priority 2003, dated 2012).

Experiments:
mir-143 pri-miRNA = mir-143 pri-miRNA levels in differentiating adipocytes (real-time RT-PCR); format: cell-based, human; details: differentiated adipocytes 9 days vs 3 days post-differentiation
Protocol: Here, oligomeric compounds targeting mir-143 were transfected into preadipocytes which were then induced to differentiate, in order to assess the effects of these compounds on mir-143 pri-miRNA levels during differentiation. mir-143 pri-miRNA levels were assessed on days 3 and 9 after differentiation.
In addition to the uniform 2′-MOE phosphorothioate oligomeric compound ISIS Number 327901 (SEQ ID NO: 319) targeting mature mir-143, a 5-10-7 gapmer oligomeric compound, ISIS Number 340927 (SEQ ID NO: 319), was designed to target mature mir-143. […] ISIS 342672 and ISIS 342673 are uniform 2′-MOE phosphorothioate oligomeric compounds 22 nucleotides in length. ISIS Number 342677 (SEQ ID NO: 789) and ISIS Number 342678 (SEQ ID NO: 758) are the corresponding 5-10-7 scrambled 2′-MOE gapmer oligomeric compounds. All cytidine residues are 5-methylcytidines. […]
These compounds were transfected into differentiating adipocytes and their effects on levels of the mir-143 pri-miRNA molecule were assessed in pre-adipocytes vs. differentiated adipocytes, by real-time RT-PCR using the primer/probe set specific for the mir-143 pri-miRNA (forward primer=ISIS 339314, SEQ ID NO: 786; reverse primer=ISIS 342897, SEQ ID NO.: 787; probe=ISIS 342898, SEQ ID NO.: 788). […]

A549 cells = assay: Cell cycle assay in A549 cells; format: cell-based, human; details: A549 cells, 24 hours, relative to the untreated control cells in that phase
Method in brief: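 A549 cells treated with 25, 50, 100 or 150 nM miRNA-targeting oligomeric compounds, random-mer as negative control. Flow cytometry cell cycle profiling 24 h after treatment; data as percentage of cells per phase relative to untreated control cells.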

TGAGCTACAGTGCTTCATCTCA [ISIS 327901] (chemistry not given here) [uniform 2′-MOE PS; targets mir-143]
levels of the mir-143 pri-miRNA (mir-143 pri-miRNA): approximately 4 fold

340350 (antisense TGCTCAATAAATACCCGTTGAA; all 2'-MOE, all phosphorothioate, methylation of C not given here) [compound 340350]
% cells in cell cycle phase: G1 (A549 cells; 25 nM): 102% | % cells in cell cycle phase: G2/M (A549 cells; 25 nM): 95% | % cells in cell cycle phase: S (A549 cells; 25 nM): 100% | % cells in cell cycle phase: aneuploid (A549 cells; 25 nM): 120% | % cells in cell cycle phase: subG1 (A549 cells; 25 nM): 91% | % cells in cell cycle phase: G1 (A549 cells; 50 nM): 128% | % cells in cell cycle phase: G2/M (A549 cells; 50 nM): 126% | % cells in cell cycle phase: S (A549 cells; 50 nM): 67% | % cells in cell cycle phase: aneuploid (A549 cells; 50 nM): 80% | % cells in cell cycle phase: subG1 (A549 cells; 50 nM): 158% | % cells in cell cycle phase: G1 (A549 cells; 100 nM): 125% | % cells in cell cycle phase: G2/M (A549 cells; 100 nM): 155% | % cells in cell cycle phase: S (A549 cells; 100 nM): 60% | % cells in cell cycle phase: aneuploid (A549 cells; 100 nM): 107% | % cells in cell cycle phase: subG1 (A549 cells; 100 nM): 267% | % cells in cell cycle phase: G1 (A549 cells; 150 nM): 128% | % cells in cell cycle phase: G2/M (A549 cells; 150 nM): 211% | % cells in cell cycle phase: S (A549 cells; 150 nM): 40% | % cells in cell cycle phase: aneuploid (A549 cells; 150 nM): 108% | % cells in cell cycle phase: subG1 (A549 cells; 150 nM): 402%
